Calls of active or inactive are those of the source.
Columns and labels:
Insulin-degrading enzyme = target: T1, Insulin-degrading enzyme (Homo sapiens, UniProt P14735); assay: Dose Response: Fluorescence polarization-based cell-based high throughput dose response assay for inhibitors of insulin-degrading enzyme (IDE). [Related pubchem assays: 434962 (Primary screen (IDE inhibitors in singlicate)), 449730 (Counterscreen (Cytotoxicity in triplicate)), 435028 (Confirmation (IDE inhibitors in triplicate)), 434984 (Summary …; format: functional
T1 sequence (P14735 whole entry): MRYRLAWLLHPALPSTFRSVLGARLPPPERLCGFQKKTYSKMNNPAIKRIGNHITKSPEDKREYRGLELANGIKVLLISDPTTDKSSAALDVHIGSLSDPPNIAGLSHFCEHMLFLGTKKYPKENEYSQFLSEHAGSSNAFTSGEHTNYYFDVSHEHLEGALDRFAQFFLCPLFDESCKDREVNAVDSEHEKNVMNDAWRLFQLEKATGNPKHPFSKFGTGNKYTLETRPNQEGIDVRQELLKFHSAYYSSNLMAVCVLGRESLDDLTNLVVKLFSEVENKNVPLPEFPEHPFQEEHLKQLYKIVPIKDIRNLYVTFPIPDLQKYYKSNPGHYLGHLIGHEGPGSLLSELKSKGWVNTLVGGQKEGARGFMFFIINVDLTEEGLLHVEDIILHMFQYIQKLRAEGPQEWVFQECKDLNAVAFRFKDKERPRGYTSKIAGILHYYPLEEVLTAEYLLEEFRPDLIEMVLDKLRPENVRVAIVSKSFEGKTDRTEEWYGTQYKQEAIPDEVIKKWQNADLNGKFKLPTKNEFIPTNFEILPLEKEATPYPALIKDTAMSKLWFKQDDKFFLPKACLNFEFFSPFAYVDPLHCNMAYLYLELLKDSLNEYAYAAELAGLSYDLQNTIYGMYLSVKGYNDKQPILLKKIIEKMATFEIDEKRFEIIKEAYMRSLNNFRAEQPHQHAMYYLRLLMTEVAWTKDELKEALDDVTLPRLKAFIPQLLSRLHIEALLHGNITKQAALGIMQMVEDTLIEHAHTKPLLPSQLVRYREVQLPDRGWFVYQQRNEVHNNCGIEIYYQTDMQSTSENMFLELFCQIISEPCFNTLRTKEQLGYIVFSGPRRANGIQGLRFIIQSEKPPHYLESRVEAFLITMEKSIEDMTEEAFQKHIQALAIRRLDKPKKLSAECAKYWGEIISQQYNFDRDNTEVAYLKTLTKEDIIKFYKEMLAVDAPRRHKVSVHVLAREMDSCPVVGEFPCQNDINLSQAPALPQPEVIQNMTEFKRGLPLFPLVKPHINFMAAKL

[1] = target: Phosphoethanolamine/phosphocholine phosphatase (Homo sapiens, UniProt Q8TCT1); assay: SAR assay for compounds that inhibit PHOSPHO1. [Related pubchem assays (depositor defined):AID1545, AID1565, AID1574]
Chain of Phosphoethanolamine/phosphocholine phosphatase (Q8TCT1 whole entry): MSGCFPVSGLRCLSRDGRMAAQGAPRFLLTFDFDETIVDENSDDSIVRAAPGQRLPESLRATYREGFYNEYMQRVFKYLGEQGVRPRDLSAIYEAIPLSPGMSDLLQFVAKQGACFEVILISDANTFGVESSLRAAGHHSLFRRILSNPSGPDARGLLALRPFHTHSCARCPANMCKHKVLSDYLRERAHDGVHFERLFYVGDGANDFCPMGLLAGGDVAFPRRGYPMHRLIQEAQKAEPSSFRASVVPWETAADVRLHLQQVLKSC

[2] = target: DNA dC->dU-editing enzyme APOBEC-3G (Homo sapiens, UniProt Q9HC16); assay: Dose Response confirmation of small molecule APOBEC3G DNA Deaminase Inhibitors via a fluorescence-based single-stranded DNA deaminase assay. [Related pubchem assays (depositor defined):AID493012, AID493028]; format: functional
Chain of DNA dC->dU-editing enzyme APOBEC-3G (Q9HC16 whole entry): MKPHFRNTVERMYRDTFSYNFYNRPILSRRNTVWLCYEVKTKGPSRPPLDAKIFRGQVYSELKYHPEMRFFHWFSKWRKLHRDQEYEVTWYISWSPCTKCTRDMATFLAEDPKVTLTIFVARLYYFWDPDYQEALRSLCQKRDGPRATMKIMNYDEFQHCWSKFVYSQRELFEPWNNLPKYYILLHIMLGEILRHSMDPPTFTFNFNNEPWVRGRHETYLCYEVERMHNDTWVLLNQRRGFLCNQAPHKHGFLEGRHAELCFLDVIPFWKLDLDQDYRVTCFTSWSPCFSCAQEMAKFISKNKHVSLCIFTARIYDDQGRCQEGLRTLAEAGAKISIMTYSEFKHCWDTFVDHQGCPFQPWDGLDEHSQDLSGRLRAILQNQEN

[3] = target: T2, Rac GTPase-activating protein 1 (Homo sapiens, UniProt Q9H0H5); assay: MgcRacGAP GTPase-activating activity inhibitors, confirmation, biochemical, ADP Hunter fluorescence, primary and confirmatory (AID 624330); format: functional
T2 sequence (Q9H0H5 whole entry): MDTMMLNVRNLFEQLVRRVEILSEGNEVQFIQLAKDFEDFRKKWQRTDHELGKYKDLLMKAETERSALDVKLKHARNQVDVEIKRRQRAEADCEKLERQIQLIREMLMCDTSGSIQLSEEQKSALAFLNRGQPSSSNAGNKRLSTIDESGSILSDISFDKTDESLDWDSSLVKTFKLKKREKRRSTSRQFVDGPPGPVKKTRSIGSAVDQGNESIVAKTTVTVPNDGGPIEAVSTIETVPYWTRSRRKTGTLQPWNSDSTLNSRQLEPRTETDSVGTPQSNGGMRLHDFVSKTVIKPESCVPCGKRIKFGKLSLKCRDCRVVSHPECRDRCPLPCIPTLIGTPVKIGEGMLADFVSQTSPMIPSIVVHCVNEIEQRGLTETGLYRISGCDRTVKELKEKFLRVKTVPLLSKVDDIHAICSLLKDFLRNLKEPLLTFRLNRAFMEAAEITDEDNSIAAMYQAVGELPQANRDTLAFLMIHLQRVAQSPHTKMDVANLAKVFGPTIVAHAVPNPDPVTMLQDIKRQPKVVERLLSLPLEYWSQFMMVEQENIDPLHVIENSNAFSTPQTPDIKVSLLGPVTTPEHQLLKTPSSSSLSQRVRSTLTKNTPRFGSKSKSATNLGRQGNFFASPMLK

[4] = Counterscreen for IDE inhibitors: Luminescence-based cell-based high throughput dose response assay to identify compounds that are cytotoxic to HEK cells. [Related pubchem assays: 434962 (Primary screen (IDE inhibitors in singlicate)), 449730 (Counterscreen (Cytotoxicity in triplicate)), 435028 (Confirmation (IDE inhibitors in triplicate)) …; format: functional; details: HEK293
[5] = target: T3, Mannose-6-phosphate isomerase (Homo sapiens, UniProt P34949); assay: PMI enzyme inhibitors, confirmation, biochemical, fluorescence intensity (AID 1535)
T3 sequence (P34949 whole entry): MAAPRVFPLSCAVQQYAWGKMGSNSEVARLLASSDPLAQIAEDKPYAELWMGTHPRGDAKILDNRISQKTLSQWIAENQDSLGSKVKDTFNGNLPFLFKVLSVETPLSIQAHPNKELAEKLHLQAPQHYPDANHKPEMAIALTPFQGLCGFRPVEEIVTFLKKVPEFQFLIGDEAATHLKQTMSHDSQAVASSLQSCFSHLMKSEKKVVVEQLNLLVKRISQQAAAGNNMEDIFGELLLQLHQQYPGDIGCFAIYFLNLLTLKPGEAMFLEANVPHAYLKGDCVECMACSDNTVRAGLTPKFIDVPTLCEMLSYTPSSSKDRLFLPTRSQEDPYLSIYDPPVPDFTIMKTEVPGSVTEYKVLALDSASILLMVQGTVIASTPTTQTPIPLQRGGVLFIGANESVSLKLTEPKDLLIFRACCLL

[6] = target: DNA dC->dU-editing enzyme APOBEC-3A (Homo sapiens, UniProt P31941); assay: APOBEC3A DNA deaminase inhibitors, dose response, biochemical (AID 504722); format: functional
Chain of DNA dC->dU-editing enzyme APOBEC-3A (P31941 whole entry): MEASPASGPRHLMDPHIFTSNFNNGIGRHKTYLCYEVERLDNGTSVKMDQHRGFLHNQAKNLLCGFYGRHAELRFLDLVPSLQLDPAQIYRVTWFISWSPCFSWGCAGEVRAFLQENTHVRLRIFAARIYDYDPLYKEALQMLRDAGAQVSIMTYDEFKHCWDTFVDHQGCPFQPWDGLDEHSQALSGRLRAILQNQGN

Phosphomannomutase 2 = target: T4, Phosphomannomutase 2 (Homo sapiens, UniProt O15305); assay: Counter screen SAR assay for PMM2 inhibitors via a fluorescence intensity assay. [Related pubchem assays (depositor defined):AID1545, AID1574]
T4 sequence (O15305 whole entry): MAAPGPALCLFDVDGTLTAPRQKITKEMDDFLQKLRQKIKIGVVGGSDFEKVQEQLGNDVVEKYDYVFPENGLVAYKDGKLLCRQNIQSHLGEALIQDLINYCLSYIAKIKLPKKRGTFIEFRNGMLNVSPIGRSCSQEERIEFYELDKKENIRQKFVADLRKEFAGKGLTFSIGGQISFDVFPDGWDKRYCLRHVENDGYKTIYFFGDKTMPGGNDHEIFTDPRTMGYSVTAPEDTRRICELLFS

[7] = target: T5, Alkaline phosphatase, tissue-nonspecific isozyme (Homo sapiens, UniProt P05186); assay: human TNAP enzyme inhibitors, SAR follow-up, biochemical, luminescent, dose response (AID 1056)
T5 sequence (P05186 whole entry): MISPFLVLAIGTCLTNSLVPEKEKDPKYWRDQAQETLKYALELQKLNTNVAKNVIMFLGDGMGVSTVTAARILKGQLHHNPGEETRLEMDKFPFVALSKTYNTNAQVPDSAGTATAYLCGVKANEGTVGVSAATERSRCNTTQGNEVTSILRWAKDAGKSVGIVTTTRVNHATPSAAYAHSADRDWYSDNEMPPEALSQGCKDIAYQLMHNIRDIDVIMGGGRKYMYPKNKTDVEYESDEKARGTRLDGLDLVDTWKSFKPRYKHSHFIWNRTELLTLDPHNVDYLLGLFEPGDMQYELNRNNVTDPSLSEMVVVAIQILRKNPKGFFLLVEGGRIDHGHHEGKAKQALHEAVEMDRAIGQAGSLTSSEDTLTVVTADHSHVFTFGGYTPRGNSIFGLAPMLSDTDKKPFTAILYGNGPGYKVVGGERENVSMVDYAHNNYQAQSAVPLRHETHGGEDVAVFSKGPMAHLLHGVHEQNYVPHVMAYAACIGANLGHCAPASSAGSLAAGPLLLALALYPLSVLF

O=C(O)c1cccc(-n2sc3ccccc3c2=O)c1
IC50 (Insulin-degrading enzyme): 2.38 µM (active)
IC50 [1]: 1.14 µM (inactive)
IC50 [2]: 4.85 µM (active)
IC50 [3]: 30.1 µM (active)
IC50 [4]: 36.7 µM (not active)
IC50 [5]: 3.29 µM (active)
IC50 [6]: > 100 µM (inactive)
IC50 (Phosphomannomutase 2): 52.5 µM (active)
IC50 [7]: > 100 µM (inactive)

From ChEMBL document CHEMBL1201862, “PubChem BioAssay data set” (2004)
